Source: article PMC11375794, “Discovery of new Hsp90–Cdc37 protein–protein interaction inhibitors: in silico screening and optimization of anticancer activity” (RSC Advances, 2024)

Key:
full-length Hsp90β = target: T1, full-length Hsp90β (Homo sapiens, UniProt P08238); test: Microscale thermophoresis (MST) binding to Hsp90β
T1 construct: For the protein expression of full-length Hsp90β, we received plasmids as a kind gift; made in house; host or cells: Escherichia coli strain Rosetta
Experimental: For the protein expression of full-length Hsp90β, we received plasmids as a kind gift from Dr Asta Zubriené at the Institute of Biotechnology, Vilnius University, Lithuania. Hsp90β, tagged with N-terminal 6×His-tag, was expressed in Escherichia coli strain Rosetta. The cells were cultured in LB media supplemented with kanamycin (50 μg mL^−1) and chloramphenicol (34 μg mL^−1) at 37 °C, and protein expression was initiated with 0.5 mM isopropyl β-D-1-thiogalactopyranoside (IPTG) when the OD600 reached 0.8. Following induction, the cells were incubated for 16 hours at 18 °C before being harvested by centrifugation. The cells were resuspended in a lysis buffer containing 40 mM potassium phosphate pH 8.0, 400 mM KCl, 10 mM imidazole, and protease inhibitors (Sigma), and then lysed by sonication. After centrifugation, the proteins were initially purified using a Ni^2+-affinity HisTrap column (GE Healthcare). Impurities were washed away with lysis buffer containing 20–40 mM imidazole, and Hsp90β was subsequently eluted with lysis buffer containing 300 mM imidazole. The purification process continued with size exclusion chromatography (SEC) using a Superdex-200 (16/600) column (GE Healthcare) and a running buffer of 50 mM Tris pH 7.5 at room temperature, 300 mM KCl. The purity of the fractions was confirmed by SDS-PAGE, and they were then concentrated. For the NMR experiments, Hsp90β was dialyzed against NMR buffer (50 mM potassium phosphate pD 7.5, 100 mM KCl, 2 mM DTT (98%, D10) in D2O) and subsequently frozen in liquid nitrogen.
(§1) The full-length Hsp90β was labeled using the Monolith His-Tag Labeling Kit RED-tris-NTA following the manufacturer's instructions (NanoTemper Technologies GmbH, Munich, Germany). The proteins were first diluted to a concentration of 8 nM in assay buffer (50 mM Tris–HCl, pH 7.4, containing 150 mM NaCl, 5% ethanol, and 10 mM MgCl2). To determine the Kd values, the proteins were mixed with the test compounds in a 1 : 1 ratio as stated in the manufacturers protocol. The final concentration of Hsp90β was 4 nM, with compounds added in the following ranges: 1000 μM to 5.86 μM for 8c; 312.5 μM to 0.15 μM for 13g and 125 μM to 3.91 μM for 1. Two independent Kd determinations were performed for compounds 8c and 13g. […] Next, Cdc37 (AR09008PUN, OriGene Technologies, Inc., Rockville, MD, USA) was acquired for the purpose of PPI inhibition evaluation between full-length Hsp90β and Cdc37. […] In all experiments the compounds were incubated with the proteins for 15 minutes in the dark at room temperature. The mixtures were then loaded into Monolith NT.115 Premium Capillaries (NanoTemper Technologies GmbH, Munich, Germany). Thermophoresis was induced at 1475 ± 15 nm and measured using a Monolith NT.115 pico instrument (NanoTemper Technologies GmbH, Munich, Germany). Measurements were conducted at ambient temperature (24–25 °C), with excitation power set to 20% and MST power set to 40%, and a laser on time of 5 seconds. To calculate the Kd values, the average fluorescence responses for each concentration were plotted against the logarithm of compound concentrate on using GraphPad Prism software (GraphPad Software, Inc., La Jolla, CA).

leukemia cell line THP-1 = test: MTS cell viability (antiproliferative) assay in THP-1; format: cell-based; conditions: Homo sapiens, THP-1, 72 hours, mean ± SD
Experimental: (§2) Hormone-positive breast cancer cell line MCF-7 (ATCC-HTB-22; ATCC) was grown in Dulbecco's Modified Eagle's Medium (DMEM), while Ewing sarcoma cell line SK-N-MC (a kind gift from Beat Schäfer) and THP-1 (ATCC-TIB-202; ATCC) cells were grown in Roswell Park Memorial Institute (RPMI) 1640. The medium was supplemented with 10% heat-inactivated fetal bovine serum (Gibco, Thermo Fisher Scientific, Waltham, MA, USA), 100 U per mL penicillin, 100 μg per mL streptomycin, and 2 mM L-glutamine (all from Sigma-Aldrich, St. Louis, MO, USA). All cell lines were incubated at 37 °C in a 5% CO2 atmosphere.
(§3) The antiproliferative activity of the compounds was evaluated against MCF-7 (ATCC-HTB-22; ATCC), SK-N-MC (a kind gift from Beat Schäfer) and THP-1 (ATCC-TIB-202; ATCC) cancer cell lines using the MTS assay (Promega, Madison, WI, USA). Cells were seeded in 96-well plates at a density of 2 × 10^4 cells per mL in 100 μL of growth medium for THP-1 and were treated with compounds and controls directly, while 3 × 10^3 cells per mL for MCF-7 and SK-N-MC were seeded in 100 μL of growth medium and allowed to adhere overnight following the treatment. In all cases the cells were treated with respective newly prepared compounds, positive controls (17-DMAG for MCF-7 and SK-N-MC; PU-H71 for THP-1) and a vehicle control (0.5% DMSO). The incubation time after treatment was 72 hours, then CellTiter96® Aqueous One Solution Reagent (Promega, Madison, WI, USA) was added to each well. Following a 3 hours incubation, absorbance was measured at 492 nm using BioTek's Synergy™ 4 Hybrid Microplate Reader (Winooski, VT, USA). The measurements were performed in two biological repetitions and each time the experiment was performed in a triplicate. The IC50 values, representing the concentration of inhibitor required for half-maximal inhibition, are the average of three independent experiments and were calculated using GraphPad Prism 9.5.0 software (San Diego, CA, USA).

[1] = Solubility as observed in MST; format: physicochemical; conditions: MST assay buffer
Experimental: as §1, with “The mixtures were then loaded into Monolith NT.115 Premium Capillaries (NanoTemper Technologies GmbH, Munich, Germany).” left out, “Measurements were conducted at ambient temperature (24–25 °C), with excitation power set to 20% and MST power set to 40%, and a laser on time of 5 seconds.” left out

[2] = test system: Ewing sarcoma cell line SK-N-MC; test: MTS cell viability (antiproliferative) assay in SK-N-MC; format: cell-based; conditions: Homo sapiens, SK-N-MC, 72 hours, mean ± SD
Experimental: as §2, §3

[3] = test system: MCF-7 breast cancer cell line; test: MTS cell viability (antiproliferative) assay in MCF-7; format: cell-based; conditions: Homo sapiens; for IC50: MTS assay, 72 hours, mean ± SD
Experimental: as §2, §3

Asp47Ala mutant of Hsp90 = target: Asp47Ala mutant of Hsp90; set-up: method as in PMID 31555737; conditions: cited from earlier work
wild-type Hsp90 = target: wild-type Hsp90; set-up: method as in PMID 31555737; conditions: cited from earlier work
[4] = test system: Hsp90 client protein levels (Cdk4, Akt, c-Raf, ERα, IGF1R) and Hsp70, Hsp90 in MCF-7 cells; test: Western blot of Hsp90 client proteins and heat shock proteins; format: cell-based; conditions: MCF-7, 20 μM, 24 hours
Experimental: MCF-7 cells were treated with compounds 8c (20 μM and 50 μM), 13g (20 μM and 50 μM) and DDO-5936 (20 μM) or 0.5% DMSO as a negative control. The cells were incubated with the compounds or negative control for 24 hours. After incubation, the cells were rinsed with PBS (Gibco, Thermo Fisher Scientific, Waltham, MA, USA) and lysed using RIPA buffer containing 50 mM Tris–HCl pH 7.4, 150 mM NaCl, 1% NP-40, 0.5% sodium deoxycholate, and 1 mM EDTA. The RIPA buffer was further supplemented with Halt™ Protease Inhibitor Cocktail and Halt™ Phosphatase Inhibitor Cocktail (both from Thermo Fisher Scientific, Waltham, MA, USA) at a 1 : 100 dilution. The lysates were then frozen for at least 24 hours. Upon thawing, the lysates were sonicated and centrifuged at 15 000 rpm for 20 minutes at 4 °C. Only the supernatants were collected, and protein concentration was measured using the DC protein assay (Bio-Rad, Hercules, California, USA). Proteins (20 μg) were separated by SDS-PAGE on a 10% acrylamide/bisacrylamide gel, running at 80 V for 15 minutes followed by 130 V for 60 minutes. The separated proteins were then transferred onto a nitrocellulose membrane using the iBlot 2 Dry Blotting System (Thermo Fisher Scientific, Waltham, MA, USA). The membranes were blocked with 5% BSA for 1 hour at room temperature to prevent nonspecific binding. Primary antibodies were then added, and the membranes were incubated overnight at 4 °C. The primary antibodies (Cell Signaling, Danvers, MA, USA) used included anti-β-ActinMouse mAb (1 : 5000), anti-Hsp90 Rabbit mAb (1 : 1000), anti-Hsp70 Mouse mAb (1 : 1000), anti-IGF1R Rabbit (1 : 1000), anti-CDK4 Rabbit (1 : 1000), anti-ERα Mouse mAb (1 : 1000), anti-Akt Rabbit mAb (1 : 1000), and anti-c-Raf Rabbit mAb (1 : 1000). Secondary antibodies included anti-rabbit IgG, HRP-linked antibody (1 : 10 000), and anti-mouse IgG, HRP-linked antibody (1 : 10 000), which were incubated with the membranes for 1 hour at room temperature. Following washes, SuperSignal™ West Femto Maximum Sensitivity Substrate (Thermo Fisher Scientific, Waltham, MA, USA) was applied. Visualization of the blots was performed using the UVITEC Cambridge Imaging System (UVITEC, Cambridge, UK), and densitometric analysis of the western blot bands was conducted using NineAlliance software. Relative protein densities were calculated in relation to β-actin, used as a loading control.

T1 sequence (P08238 whole entry): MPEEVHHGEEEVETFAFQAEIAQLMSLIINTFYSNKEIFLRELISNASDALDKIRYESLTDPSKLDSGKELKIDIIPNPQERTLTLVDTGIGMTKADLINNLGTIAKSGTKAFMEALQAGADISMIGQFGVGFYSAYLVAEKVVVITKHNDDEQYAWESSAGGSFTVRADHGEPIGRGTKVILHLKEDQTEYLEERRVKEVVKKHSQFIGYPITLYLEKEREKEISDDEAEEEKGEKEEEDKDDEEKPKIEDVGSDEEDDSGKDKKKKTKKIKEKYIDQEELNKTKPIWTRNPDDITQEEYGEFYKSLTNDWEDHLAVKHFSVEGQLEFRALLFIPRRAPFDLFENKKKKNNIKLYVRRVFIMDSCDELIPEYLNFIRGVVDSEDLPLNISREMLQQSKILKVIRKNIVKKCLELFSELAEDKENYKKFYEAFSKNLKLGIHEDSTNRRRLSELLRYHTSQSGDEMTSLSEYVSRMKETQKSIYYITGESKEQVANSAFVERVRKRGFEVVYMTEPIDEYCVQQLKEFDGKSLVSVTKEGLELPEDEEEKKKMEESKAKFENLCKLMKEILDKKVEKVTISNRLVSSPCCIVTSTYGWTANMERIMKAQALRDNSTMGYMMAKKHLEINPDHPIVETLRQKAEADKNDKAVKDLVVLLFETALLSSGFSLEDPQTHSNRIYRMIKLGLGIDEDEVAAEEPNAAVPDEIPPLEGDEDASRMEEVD

Row | concentrations at which an increase in binding could be detected (full-length Hsp90β) | highest concentration without compound-induced protein aggregation (full-length Hsp90β) [µM] | binding to Hsp90β (qualitative) (full-length Hsp90β; 125 μM to 3.91 μM) | solubility [1] | IC50 ([3]; MCF7, 72 h) [µM] | SMILES | IC50 (leukemia cell line THP-1) [µM] | IC50 [2] [µM] | Kd (Asp47Ala mutant of Hsp90) [µM] | Kd (wild-type Hsp90) [µM] | inhibition at 50 µM ([3]; MCF7, MCF-7, at 50 μM, read-out: growth inhibition) [%] | IC50 ([3]; MCF7) [µM] | ERα level [4]
1 | above 39 μM | 125 | confirmed qualitatively | poor | 29.5 ± 5.4 | Cc1nc(Nc2nc(C(=O)N(C)CCOc3ccccc3)cs2)cc(C2CCCN(CC#N)C2)n1 (centres unmarked) [Compound 1] | > 50 | 25 ± 0.4 |  |  |  |  | 
2 |  |  |  |  |  | Cc1cc(C)c(S(=O)(=O)N(CC(=O)O)c2ccc(Nc3ccnc(N4CCCC4)n3)cc2)c(C)c1 [DDO-5936, reference compound] | > 50 | > 50 | > 100 | 3.86 | 17 | > 50 | downregulated
